{"source": "patent US20130337579A1", "about": "“Methods for Determining Protein Ligand Binding” (UNIVERSITY OF MARYLAND, COLLEGE PARK, priority 2010, published 2013)", "key": {"[1]": {"molecular_target": "Maltose binding protein (MBP) (Escherichia coli, UniProt P0AEX9)", "conditions": "whole-cell lysate, 8 nM 32P-cdiGMP", "experimental": "(§1) Radiolabeled ligands were incubated with each of the proteins and the mixtures were spotted on nitrocellulose. After spreading by capillary action, membranes were dried and quantitated by phosphorimager. […] The specificity of Alg44PilZ binding to cdiGMP was further tested by competition with excess unlabeled nucleotides (400-fold molar excess relative to the Alg44PilZ protein)."}, "[2]": {"molecular_target": "Vc2* riboswitch RNA", "test": "Electrophoretic mobility shift assay (EMSA) of cdiGMP binding to Vc2* RNA", "conditions": "read-out: Kd (apparent affinity)", "source_text": "We have shown that protein interaction with DNA can be detected by DRaCALA. We wondered if the principle of DRaCALA would also apply to ribonucleic acids. In particular, can the DRaCALA technology be used to detect the interaction of riboswitches with their small molecule ligands. One example of such an interaction that has been of recent interest is the cdiGMP responsive Vc2 riboswitch identified in bacteria. To study such an interaction with DRaCALA, one of the binding partners must be immobilized. […] The biotinylated riboswitch was sequestered by streptavidin, allowing the nucleic acid to take the place of protein as the immobile partner in the binding assay. Vc2* was tested directly for sequestration of cdiGMP and also biotinylated and tested for binding to cdiGMP in the presence or absence of streptavidin. The 4 nM radiolabelled cdiGMP was mobile alone and in the presence of the Vc2* or biotinylated Vc2* RNA (FIG. 19A, lanes 1-3). […] Biotinylated Vc2* RNA and bound cdiGMP was immobilized by streptavidin as expected (lane 6). […]\nGel shift assays were performed using 8% acrylamide gels with 100 mM Tris/HEPES, pH=7.5, 10 mM MgCl2, and 0.1 mM EDTA in the gel and running buffer. […] Gels were imaged with a phosphorimager and fraction bound quantified with Fuji Image Guage software. […]"}, "[3]": {"molecular_target": "T1, Alg44PilZ (Pseudomonas aeruginosa, UniProt Q9HY69)", "T1 construct": "Previous studies of the dissociation rate of cdiGMP from Alg44PilZ", "T1 sequence (Q9HY69 16-116)": "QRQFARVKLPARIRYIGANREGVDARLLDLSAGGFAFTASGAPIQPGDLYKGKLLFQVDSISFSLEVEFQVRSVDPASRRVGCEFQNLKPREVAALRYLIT", "conditions": "previously determined by ITC (Merighi 2007); cited from earlier work"}, "[4]": {"molecular_target": "Vc2* riboswitch RNA", "test": "DRaCALA of cdiGMP binding to biotinylated Vc2* RNA immobilized by streptavidin", "conditions": "Vc2*-biotin RNA diluted, 4 nM 32P-cdiGMP", "experimental": "FIG. 19. Vc2* RNA binding to ^32P-cdiGMP is detected by DRaCALA. (A) Spots visualized by phosphorimager with streptavidin used to immobilize biotinylated RNA. The binding reaction contained 4 nM ^32P-cdiGMP, 1 μM RNA, and 200 nM streptavidin in buffer (10 mM KCl, 10 mM sodium cacodylate, 3 mM MgCl2). (B) The affinity of Vc2*-biotin RNA for cdiGMP was determined with both EMSA and DRaCALA by diluting RNA in the binding reaction. The fraction bound is normalized such that 1.0 represents maximal binding.\nWe have shown that protein interaction with DNA can be detected by DRaCALA. We wondered if the principle of DRaCALA would also apply to ribonucleic acids. In particular, can the DRaCALA technology be used to detect the interaction of riboswitches with their small molecule ligands. One example of such an interaction that has been of recent interest is the cdiGMP responsive Vc2 riboswitch identified in bacteria. To study such an interaction with DRaCALA, one of the binding partners must be immobilized. […] The biotinylated riboswitch was sequestered by streptavidin, allowing the nucleic acid to take the place of protein as the immobile partner in the binding assay. Vc2* was tested directly for sequestration of cdiGMP and also biotinylated and tested for binding to cdiGMP in the presence or absence of streptavidin. […]"}, "[5]": {"molecular_target": "T2, E. coli CRP (Escherichia coli, UniProt P0ACJ8)", "T2 construct": "His; made in house", "T2 sequence (P0ACJ8 whole entry)": "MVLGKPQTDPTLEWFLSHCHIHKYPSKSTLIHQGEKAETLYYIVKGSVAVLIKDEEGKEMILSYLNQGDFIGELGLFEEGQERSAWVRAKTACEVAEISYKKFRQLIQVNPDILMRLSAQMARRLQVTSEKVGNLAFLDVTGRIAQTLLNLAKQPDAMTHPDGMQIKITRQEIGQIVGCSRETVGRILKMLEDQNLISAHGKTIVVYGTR", "test": "DRaCALA binding of radiolabeled nucleotides to purified CRP", "conditions": "20 μM purified protein; 500 nM 14C-cAMP, 4 nM 32P-ATP or 4 nM 32P-cdiGMP", "experimental": "as §1\nProtein or whole cell lysates in 1× cdiGMP binding buffer (20 μl) was mixed with 4 nM of radiolabeled nucleotide and allowed to incubate for 10 minutes at room temperature. Radiolabeled nucleotide was competed away by cold nucleotides in concentrations and for times indicated. Purified proteins were tested in technical replicates. Whole cell lysates in FIG. 4 and FIG. 12 were tested in biological triplicates. Whole cell lysates in FIG. 5 were tested in technical replicates. These mixtures were pipetted (2.5-5 μl) onto dry, untreated nitrocellulose (GE Healthcare) in triplicate and allowed to dry completely before quantification. An FLA7100 Fujifilm Life Science Phosphorimager was used to detect luminescence following a 5-minute exposure of blotted nitrocellulose to phosphorimager film. Data was quantified using Fujifilm Multi Gauge software v3.0."}}, "data": [{"molecule": "Nc1nc2c(ncn2[C@@H]2O[C@@H]3CO[P@](=O)(O)O[C@H]4[C@@H](O)[C@H](n5cnc6c(=O)[nH]c(N)nc65)O[C@@H]4CO[P@](=O)(O)O[C@H]3[C@H]2O)c(=O)[nH]1", "note": "[cdiGMP, cyclic-di-GMP]", "values": [{"measurement": "binding by protein extracts from E. coli expressing MBP alone", "setting": "[1]", "result": "did not bind"}, {"measurement": "Kd", "setting": "[2]", "result": 9.8, "unit": "nM"}, {"measurement": "Kd", "setting": "[3]", "result": 5600, "unit": "nM"}, {"measurement": "Kd", "setting": "[4]", "result": 7.8, "unit": "nM"}, {"measurement": "binding to CRP (sequestration of radiolabel signal)", "setting": "[5]", "result": "did not bind"}]}]}
